Data published in US4810779A, “Decapeptides having hypotensive action and process for their preparation” (Enichem Elastomeri S.p.A., priority 1985, dated 1989).
Read-outs that look alike come from different tables or passages of the source. Where a SMILES comes first, the peptide text is derived from it. [ ]: non-standard residue; d: D form. pGlu = O=C1CC[C@@H](C(=O)O)N1; Orn = NCCC[C@H](N)C(=O)O

Columns and labels:
arterial pressure [1] = test: Effect of the decapeptides on arterial pressure (injection into femoral vein of anaesthetized rats); assay type: in vivo, C.D. male rats; settings: for Duration of hypotensive effect / Pressure Difference Maximum / Pressure Difference Minimum / hypotensive effect (in words): femoral vein; for Duration of hypotensive effect / Pressure Difference Maximum / Pressure Difference Minimum: anaesthetized rats
Protocol: (§1) The activity of the decapeptides of the present invention has been determined in vivo on C.D. male rats available from Charles-River Co., anesthetized by ethyl urethane.
(§2) The effect on the arterial pressure and on bradykinin potentating has been studied by injecting into femoral vein a decapeptide (I) in an amount of from 0.3 to 0.2 mg/kg of body weight.
Five C.D. male rats available from Charles River Co., of weight of 200-300 g, anaesthetized by ethyl urethane (1.75 g/kg by intraperitoneal way) are used.
After tracheal cannulating, the right-hand carotid artery is isolated and connected by cannula to a Hewlett-Packard Model 1280 pressure transducer.
From isolated left-hand carotid the arterial flow is recorded by means of Biotronex® electromagnetic flowmeter, and pressure variation wiith the (dp/dt), electrocardiogram (ECG) and the beats per minute (BPM) are recorded on Hewlett Packard Polygraph.
The decapeptides of the present invention have been tested by being injected into right-hand femoral vein at the dose of 0.3-0.2 mg/kg of body weight, and compared to the decapeptide (II) of the prior art.

bradykinin = test: Effect of decapeptides as bradykinin potentiators (injection into femoral vein soon before bradykinin); assay type: in vivo, Male C.D. rats; settings: for Duration of hypotensive effect (t) / Pressure Difference Maximum / Pressure Difference Minimum: bradykinin potentiation, femoral vein soon before bradykinin; for potentiation of the hypotensive effect / activity of bradykinin (in words): in vivo, male rats
Protocol: as §1, §2
Male C.D. rats of Charles-River race are treated as described in Example 8, and submitted to test by bradykinin.
Bradykinin is a physiologic peptide which, when injected into femoral vein, causes a fast but not long-lasting hypotensive effect, because it is rapidly degraded at pulmonary circulation level by the Angiotensin Conversion Enzyme (ACE).
The peptides of the present invention are tested by being injected into the right-hand femoral vein soon before bradykinin, and comparing them to the decapeptide of the prior art.

arterial pressure [2] = settings: cited from earlier work
arterial pressure [3] = settings: injected into the femoral vein of rats; cited from earlier work

Row | SMILES | Duration of hypotensive effect (arterial pressure [1]; 0.2 mg/kg) [min] | Pressure Difference Maximum (arterial pressure [1]; 0.2 mg/kg) [mmHg] | Pressure Difference Minimum (arterial pressure [1]; 0.2 mg/kg) [mmHg] | hypotensive effect (in words) (arterial pressure [1]; in vivo, male rats) | Duration of hypotensive effect (t) (bradykinin; 0.2 mg/kg) [min] | Pressure Difference Maximum (bradykinin; 0.2 mg/kg) [mmHg] | Pressure Difference Minimum (bradykinin; 0.2 mg/kg) [mmHg] | potentiation of the hypotensive effect / activity of bradykinin (in words) (bradykinin) | Duration of hypotensive effect (arterial pressure [1]; 0.3 mg/kg) [min] | Pressure Difference Maximum (arterial pressure [1]; 0.3 mg/kg) [mmHg] | Pressure Difference Minimum (arterial pressure [1]; 0.3 mg/kg) [mmHg] | eurhythmizing effect (arterial pressure [1]; in vivo, male rats) | Duration of hypotensive effect (t) (bradykinin; 0.3 mg/kg) [min] | Pressure Difference Maximum (bradykinin; 0.3 mg/kg) [mmHg] | Pressure Difference Minimum (bradykinin; 0.3 mg/kg) [mmHg] | antihypertensive action (arterial pressure [2]; administered orally) | antihypertensive action (arterial pressure [2]; intravenous administration) | lowering in arterial pressure (arterial pressure [3]) | potentiation of the activity of bradykinin (arterial pressure [3])
1 | CC(C)C[C@H](NC(=O)[C@@H]1CCC(=O)N1)C(=O)N[C@@H](Cc1c[nH]c2ccccc12)C(=O)N1CCC[C@H]1C(=O)N[C@@H](CCCNC(=N)N)C(=O)N1CCC[C@H]1C(=O)N[C@@H](Cc1c[nH]cn1)C(=O)N[C@H](C(=O)N1CCC[C@H]1C(=O)N1CCC[C@H]1C(=O)O)C(C)C [Decapeptide V, Glp-Leu-Trp-Pro-Arg-Pro-His-Val-Pro-Pro-OH] ([pGlu]LWPRPHVPP-OH) | < 10 | 15 | 15 | cause in vivo a hypotensive effect | 30 | 15 | 30 | potentiate the activity of bradykinin |  |  |  |  |  |  |  |  |  |  | 
2 | CC[C@H](C)[C@H](NC(=O)[C@H](CCC(N)=O)NC(=O)[C@@H]1CCCN1C(=O)[C@H](CCCN)NC(=O)[C@@H]1CCCN1C(=O)[C@H](Cc1c[nH]c2ccccc12)NC(=O)[C@H](CC(C)C)NC(=O)[C@@H]1CCC(=O)N1)C(=O)N1CCC[C@H]1C(=O)N1CCC[C@H]1C(=O)O [Decapeptide III, Glp-Leu-Trp-Pro-Orn-Pro-Gln-Ile-Pro-Pro-OH] ([pGlu]LWP[Orn]PQIPP-OH) |  |  |  | stronger and more long-lasting hypotensive effect than decapeptide (II) |  |  |  | potentiates the hypotensive effect of bradykinin | > 10 | 20 | 25 | shows an eurhythmizing effect | 90 | 15 | 15 |  |  |  | 
3 | CC[C@H](C)[C@H](NC(=O)[C@H](CCC(N)=O)NC(=O)[C@@H]1CCCN1C(=O)[C@H](CCCNC(=N)N)NC(=O)[C@@H]1CCCN1C(=O)[C@H](Cc1c[nH]c2ccccc12)NC(=O)[C@@H]1CCC(=O)N1)C(=O)N1CCC[C@H]1C(=O)N1CCC[C@H]1C(=O)O [Teprotide] |  |  |  |  |  |  |  |  |  |  |  |  |  |  |  | inactive when administered orally | powerful antihypertensive agent |  | 
4 | CC(C)C[C@H](NC(=O)[C@@H]1CCC(=O)N1)C(=O)N[C@@H](Cc1c[nH]c2ccccc12)C(=O)N1CCC[C@H]1C(=O)N[C@@H](CCCN)C(=O)N1CCC[C@H]1C(=O)N[C@@H](Cc1c[nH]cn1)C(=O)N[C@H](C(=O)N1CCC[C@H]1C(=O)N1CCC[C@H]1C(=O)O)C(C)C [Decapeptide IV, Glp-Leu-Trp-Pro-Orn-Pro-His-Val-Pro-Pro-OH] ([pGlu]LWP[Orn]PHVPP-OH) | < 10 | 20 | 25 | cause in vivo a hypotensive effect | 45 | 25 | 30 | potentiate the activity of bradykinin |  |  |  |  |  |  |  |  |  |  | 
5 | CC[C@H](C)[C@H](NC(=O)[C@H](CCC(N)=O)NC(=O)[C@@H]1CCCN1C(=O)[C@H](CCCNC(=N)N)NC(=O)[C@@H]1CCCN1C(=O)[C@H](Cc1c[nH]c2ccccc12)NC(=O)[C@H](CC(C)C)NC(=O)[C@@H]1CCC(=O)N1)C(=O)N1CCC[C@H]1C(=O)N1CCC[C@H]1C(=O)O [Decapeptide II, Glp-Leu-Trp-Pro-Arg-Pro-Gln-Ile-Pro-Pro-OH, reference compound] ([pGlu]LWPRPQIPP-OH) |  |  |  |  |  |  |  |  | 10 | 15 | 15 |  | 10 | 15 | 15 |  |  | causes a lowering in arterial pressure | potentiates the activity of bradykinin, prolonging the hypotensive effect thereof
